According to the supplement of paper PMC6045584:

Columns and labels:
Assay in all cases: area under dose-response curve of surviving fraction (unscaled, Aref=0) (surviving fraction x log10(nM)); higher = more resistant
Conditions in all cases: exposure time: 5 days; dose range 0.5-1000 nM
NUTLIN3 = compound: COc1ccc(C2=N[C@@H](c3ccc(Cl)cc3)[C@@H](c3ccc(Cl)cc3)N2C(=O)N2CCNC(=O)C2)c(OC(C)C)c1 [NUTLIN3]
How it was run: (§1)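 Each tumour cell line was screened three times in 384-well plates, receiving eight inhibitor concentrations from 0.5 to 1000 nM for five days. CellTiter-Glo luminescence gave viability, normalised to DMSO-only wells. Using the drc R package, surviving fractions were fitted with 3-parameter logistic dose-response curves, and the unscaled activity area over log10 dose (Aref = 0) was taken as the area under the curve.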

[1] = compound: CCN(CC)CCCCNc1ncc2cc(-c3cc(OC)cc(OC)c3)c(NC(=O)NC(C)(C)C)nc2n1
How it was run: as §1

RESVERATROL = compound: Oc1ccc(/C=C/c2cc(O)cc(O)c2)cc1 [RESVERATROL]
How it was run: as §1

2-METHOXYESTRADIOL = compound: COc1cc2c(cc1O)CC[C@@H]1[C@@H]2CC[C@]2(C)[C@@H](O)CC[C@@H]12 [2-METHOXYESTRADIOL]
How it was run: as §1

ABT-737 = compound: CN(C)CC[C@H](CSc1ccccc1)Nc1ccc(S(=O)(=O)NC(=O)c2ccc(N3CCN(Cc4ccccc4-c4ccc(Cl)cc4)CC3)cc2)cc1[N+](=O)[O-] [ABT-737]
How it was run: as §1

17-AAG = compound: C=CCNC1=C2C[C@@H](C)C[C@H](OC)[C@H](O)[C@@H](C)/C=C(\C)[C@H](OC(N)=O)[C@@H](OC)/C=C\C=C(/C)C(=O)NC(=CC1=O)C2=O [17-AAG]
How it was run: as §1

FLAVOPIRIDOL = compound: CN1CC[C@H](c2c(O)cc(O)c3c(=O)cc(-c4ccccc4Cl)oc23)[C@H](O)C1 [FLAVOPIRIDOL]
How it was run: as §1

VISMODEGIB = compound: CS(=O)(=O)c1ccc(C(=O)Nc2ccc(Cl)c(-c3ccccn3)c2)c(Cl)c1 [VISMODEGIB]
How it was run: as §1

DOXORUBICIN = compound: COc1cccc2c1C(=O)c1c(O)c3c(c(O)c1C2=O)C[C@@](O)(C(=O)CO)C[C@@H]3O[C@H]1C[C@H](N)[C@H](O)[C@H](C)O1 [DOXORUBICIN]
How it was run: as §1

FLUOROURACIL = compound: O=c1[nH]cc(F)c(=O)[nH]1 [FLUOROURACIL]
How it was run: as §1

SALINOMYCIN = compound: CC[C@@H](C(=O)[C@@H](C)[C@@H](O)[C@H](C)[C@@H]1O[C@@H]([C@@H](CC)C(=O)O)CC[C@@H]1C)[C@H]1O[C@]2(C=C[C@@H](O)[C@]3(CC[C@@](C)([C@H]4CC[C@](O)(CC)[C@H](C)O4)O3)O2)[C@H](C)C[C@@H]1C [SALINOMYCIN]
How it was run: as §1

LAPATINIB = compound: CS(=O)(=O)CCNCc1ccc(-c2ccc3ncnc(Nc4ccc(OCc5cccc(F)c5)c(Cl)c4)c3c2)o1 [LAPATINIB]
How it was run: as §1

DECITABINE = compound: Nc1ncn([C@H]2C[C@H](O)[C@@H](CO)O2)c(=O)n1 [DECITABINE]
How it was run: as §1

Test System: HS57T LUNG
- area under dose-response curve (NUTLIN3): 3.4
- area under dose-response curve [1]: 2.66
- area under dose-response curve (RESVERATROL): 3.35
- area under dose-response curve (2-METHOXYESTRADIOL): 2.78
- area under dose-response curve (ABT-737): 3.45
- area under dose-response curve (17-AAG): 1.35
- area under dose-response curve (FLAVOPIRIDOL): 2.07
- area under dose-response curve (VISMODEGIB): 3.29
- area under dose-response curve (DOXORUBICIN): 1.22
- area under dose-response curve (FLUOROURACIL): 3.24
- area under dose-response curve (SALINOMYCIN): 2.57
- area under dose-response curve (LAPATINIB): 3.42
- area under dose-response curve (DECITABINE): 3.05
